Reference: PubChem BioAssay AID248 (DTP/NCI, 2004)
Where “and” joins values, the source holds several entries; their conditions need not be identical. Identical values can stand only once. Inconclusive results and toxic doses are left out. Cut-off read from the data, not from the text of the source: active = T/C of 150% or more; inactive = T/C below 125%.

Tested on: L1210 leukemia ip in BDF1 mice, survival T/C
Experiment: NCI In Vivo Anticancer Drug Screen. Data for tumor model L1210 Leukemia (intraperitoneal) in B6D2F1 (BDF1) mice
Conditions: endpoint: mean survival time, higher = longer survival
Summary of the method: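 Antitumor effect is assessed in tumor-bearing animals. Survival in the compound arm is compared with a vehicle-dosed control arm and expressed as their quotient.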

[1] = dose: 100.0 mg/kg/injection, schedule: Q01DX009 (ip), vehicle: Klucel (hydroxypropylcellulose) (HPC)
[2] = dose: 200.0 mg/kg/injection, schedule: Q01DX009 (ip), vehicle: Klucel (hydroxypropylcellulose) (HPC)
[3] = dose: 100.0 mg/kg/injection, schedule: Q01DX001 (ip), vehicle: Klucel (hydroxypropylcellulose) (HPC)
[4] = dose: 200.0 mg/kg/injection, schedule: Q01DX001 (ip), vehicle: Klucel (hydroxypropylcellulose) (HPC)
[5] = dose: 400.0 mg/kg/injection, schedule: Q01DX001 (ip), vehicle: Klucel (hydroxypropylcellulose) (HPC)
[6] = dose: 100.0 mg/kg/injection, schedule: Q01DX001 (ip), vehicle: saline
[7] = dose: 200.0 mg/kg/injection, schedule: Q01DX001 (ip), vehicle: saline
[8] = dose: 400.0 mg/kg/injection, schedule: Q01DX001 (ip), vehicle: saline
[9] = dose: 50.0 mg/kg/injection, schedule: Q01DX001 (ip), vehicle: carboxymethylcellulose (CMC)
[10] = dose: 100.0 mg/kg/injection, schedule: Q01DX001 (ip), vehicle: carboxymethylcellulose (CMC)
[11] = dose: 200.0 mg/kg/injection, schedule: Q01DX001 (ip), vehicle: carboxymethylcellulose (CMC)
[12] = dose: 400.0 mg/kg/injection, schedule: Q01DX001 (ip), vehicle: carboxymethylcellulose (CMC)

Measured: T/C

CCCCCCCCO/N=C\c1c2c(O)c3c(O)c(C)c4c(c3c1O)C(=O)C(C)(O/C=C\C(OC)C(C)C(OC(C)=O)C(C)C(O)C(C)C(O)C(C)/C=C\C=C(\C)C(=O)N2)O4 (centres undefined)
inactive: dose: 50.0 mg/kg/injection, schedule: Q04DX003 (ip), vehicle: water 96 % of control | [1] 106 % of control | dose: 100.0 mg/kg/injection, schedule: Q04DX003 (ip), vehicle: water 100 % of control | [2] 89 % of control | dose: 200.0 mg/kg/injection, schedule: Q04DX003 (ip), vehicle: water 98 % of control | dose: 400.0 mg/kg/injection, schedule: Q04DX003 (ip), vehicle: water 104 % of control

O=C(O)C1=CC2CC1C1CC(C(=O)O)CC21 (centres undefined)
inactive: [3] 105 % of control | [4] 91 % of control | [5] 103 % of control

O=C(OC1CC2CCC1CC2)c1ccc([N+](=O)[O-])cc1 (centres undefined)
inactive: [6] 97 % of control | [7] 95 % of control | [8] 92 % of control

CC1(C)CN(C(C)(C)C)CC(C)(C)C(O)C1=O (centres undefined)
inactive: dose: 100.0 mg/kg/injection, schedule: Q01DX001 (ip), vehicle: saline with Tween-80 96 % of control | dose: 200.0 mg/kg/injection, schedule: Q01DX001 (ip), vehicle: saline with Tween-80 91 % of control | dose: 400.0 mg/kg/injection, schedule: Q01DX001 (ip), vehicle: saline with Tween-80 93 % of control

CN=C(Nc1ccc(Cl)c(Cl)c1)C(C)C
inactive: dose: 6.25 mg/kg/injection, schedule: Q04DX002 (ip), vehicle: DMSO 98 % of control | dose: 12.5 mg/kg/injection, schedule: Q04DX002 (ip), vehicle: DMSO 95 % of control | dose: 25.0 mg/kg/injection, schedule: Q04DX002 (ip), vehicle: DMSO 94 % of control and 106 % of control | dose: 44.0 mg/kg/injection, schedule: Q01DX Z (ip), vehicle: methylcellulose (MC) 91 % of control | dose: 50.0 mg/kg/injection, schedule: Q04DX002 (ip), vehicle: DMSO 97 % of control | dose: 66.0 mg/kg/injection, schedule: Q01DX Z (ip), vehicle: methylcellulose (MC) 98 % of control | dose: 100.0 mg/kg/injection, schedule: Q01DX Z (ip), vehicle: methylcellulose (MC) 101 % of control

O/C(=C/C(=S)S)c1ccco1
inactive: dose: 25.0 mg/kg/injection, schedule: Q01DX009 (ip), vehicle: water 87 % of control | dose: 50.0 mg/kg/injection, schedule: Q01DX009 (ip), vehicle: water 93 % of control | dose: 100.0 mg/kg/injection, schedule: Q01DX009 (ip), vehicle: water 88 % of control | dose: 200.0 mg/kg/injection, schedule: Q01DX009 (ip), vehicle: water 90 % of control | dose: 400.0 mg/kg/injection, schedule: Q01DX009 (ip), vehicle: water 93 % of control

CC1C2CC3OC(=O)C1C3C2 (centres undefined)
inactive: [9] 104 % of control | [10] 102 % of control | [11] 87 % of control

CC(C)(C)C1=CC(=O)C(N2C3C4CCC(C4)C32)=C(N2C3C4CCC(C4)C32)C1=O (centres undefined)
inactive: [3] 96 % of control | [4] 94 % of control | [5] 87 % of control

COc1ccccc1NC(=O)Nc1c(C)cccc1C
inactive: dose: 100.0 mg/kg/injection, schedule: Q01DX009 (ip), vehicle: gum acacia 97 % of control | dose: 100.0 mg/kg/injection, schedule: Q04DX003 (ip), vehicle: gum acacia 98 % of control | dose: 200.0 mg/kg/injection, schedule: Q01DX009 (ip), vehicle: gum acacia 88 % of control | dose: 200.0 mg/kg/injection, schedule: Q04DX003 (ip), vehicle: gum acacia 93 % of control | dose: 400.0 mg/kg/injection, schedule: Q01DX009 (ip), vehicle: gum acacia 90 % of control | dose: 400.0 mg/kg/injection, schedule: Q04DX003 (ip), vehicle: gum acacia 94 % of control

Nc1nc(N)nc(-c2ccccc2NC(=O)c2ccccc2N)n1
inactive: [1] 95 % of control | dose: 100.0 mg/kg/injection, schedule: Q04DX003 (ip), vehicle: Klucel (hydroxypropylcellulose) (HPC) 103 % of control | [2] 91 % of control | dose: 200.0 mg/kg/injection, schedule: Q04DX003 (ip), vehicle: Klucel (hydroxypropylcellulose) (HPC) 101 % of control | dose: 400.0 mg/kg/injection, schedule: Q01DX009 (ip), vehicle: Klucel (hydroxypropylcellulose) (HPC) 101 % of control | dose: 400.0 mg/kg/injection, schedule: Q04DX003 (ip), vehicle: Klucel (hydroxypropylcellulose) (HPC) 95 % of control

CCc1nc(=S)c2[nH]cnc2[nH]1
inactive: dose: 100.0 mg/kg/injection, schedule: Q04DX003 (ip), vehicle: saline with Tween-80 93 % of control | dose: 200.0 mg/kg/injection, schedule: Q04DX003 (ip), vehicle: saline with Tween-80 90 % of control | dose: 400.0 mg/kg/injection, schedule: Q04DX003 (ip), vehicle: saline with Tween-80 93 % of control

CC1COCC(C)N1CCC(=O)Nc1ccc(S(=O)(=O)c2ccc(NC(=O)CCN3C(C)COCC3C)cc2)cc1 (centres undefined)
inactive: [10] 107 % of control | [11] 104 % of control | [12] 101 % of control

Nc1ncnc2scnc12
inactive: [6] 102 % of control | [7] 99 % of control | [8] 100 % of control

CC(C)=NSc1ccccc1
inactive: dose: 50.0 mg/kg/injection, schedule: Q01DX001 (ip), vehicle: Klucel (hydroxypropylcellulose) (HPC) 99 % of control | [3] 97 % of control | [4] 97 % of control

O=C(Nc1cccc2ccccc12)Oc1ccc(Cl)cc1Cc1ccccc1
inactive: dose: 12.5 mg/kg/injection, schedule: Q04DX002 (ip), vehicle: Klucel (hydroxypropylcellulose) (HPC) 123 % of control | dose: 25.0 mg/kg/injection, schedule: Q04DX002 (ip), vehicle: Klucel (hydroxypropylcellulose) (HPC) 105 % of control | dose: 50.0 mg/kg/injection, schedule: Q04DX002 (ip), vehicle: Klucel (hydroxypropylcellulose) (HPC) 94 % of control | dose: 100.0 mg/kg/injection, schedule: Q04DX002 (ip), vehicle: Klucel (hydroxypropylcellulose) (HPC) 92 % of control | dose: 200.0 mg/kg/injection, schedule: Q04DX002 (ip), vehicle: Klucel (hydroxypropylcellulose) (HPC) 89 % of control

O=C(OCC1CC=CC1)C1CC=CC1
inactive: dose: 100.0 mg/kg/injection, schedule: Q04DX003 (ip), vehicle: saline sonified 102 % of control | dose: 200.0 mg/kg/injection, schedule: Q04DX003 (ip), vehicle: saline sonified 96 % of control

Cc1ccc(S)cc1.[Pb]
inactive: [9] 98 % of control | [10] 93 % of control | [11] 103 % of control | [12] 93 % of control

C#CCN(C)C(=O)Nc1ccccc1
inactive: dose: 100.0 mg/kg/injection, schedule: Q04DX002 (ip), vehicle: saline with Tween-80 91 % of control | dose: 200.0 mg/kg/injection, schedule: Q04DX002 (ip), vehicle: saline with Tween-80 91 % of control | dose: 400.0 mg/kg/injection, schedule: Q04DX002 (ip), vehicle: saline with Tween-80 113 % of control

CNCCOC(=O)c1cc([N+](=O)[O-])c(C)s1
inactive: [6] 94 % of control | [7] 103 % of control | [8] 100 % of control

COc1c2occc2c(OC)c2c(=O)cc(/C=C/c3ccc4ccccc4n3)oc12
inactive: [6] 95 % of control | [7] 95 % of control | [8] 96 % of control

c1ccc2c(c1)ccc1[s+]cccc12
inactive: dose: 100.0 mg/kg/injection, schedule: Q04DX003 (ip), vehicle: acetone 100 % of control | dose: 200.0 mg/kg/injection, schedule: Q04DX003 (ip), vehicle: acetone 105 % of control
